From the supplement of paper PMC8671470

Experiments:
Conditions in all cases: 72 h
[1] = system: myeloid leukemia patient primary cells Pat.10; assay: cell viability (% survival relative to DMSO control); higher = less cytotoxic
Summary of the method: (§1)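 Thawed mononuclear cells from AML or CML patients were purified on Ficoll and cultured for 72 h in RPMI 1640 with 10% FBS, at 10,000 cells/well, on 384-well plates carrying 70 pre-printed compounds at 1–10,000 nM in five tenfold steps, in duplicate. Viability came from CellTiter-Glo, normalised against DMSO and against 10 μM proteasome inhibitor. Any area under the curve given was derived from log-logistic curve fits in the drc and PharmacoGx R packages, and these fits had four parameters.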

[2] = system: myeloid leukemia patient primary cells Pat.11; assay: as above
Summary of the method: as §1

[3] = system: myeloid leukemia patient primary cells Pat.12; assay: as above
Summary of the method: as §1

[4] = system: myeloid leukemia patient primary cells Pat.13; assay: as above
Summary of the method: as §1

[5] = system: myeloid leukemia patient primary cells Pat.14; assay: as above
Summary of the method: as §1

[6] = system: myeloid leukemia patient primary cells Pat.15; assay: as above
Summary of the method: as §1

[7] = system: myeloid leukemia patient primary cells Pat.1; assay: as above
Summary of the method: as §1

[8] = system: myeloid leukemia patient primary cells Pat.2; assay: as above
Summary of the method: as §1

[9] = system: myeloid leukemia patient primary cells Pat.3; assay: as above
Summary of the method: as §1

[10] = system: myeloid leukemia patient primary cells Pat.4; assay: as above
Summary of the method: as §1

[11] = system: myeloid leukemia patient primary cells Pat.5; assay: as above
Summary of the method: as §1

[12] = system: myeloid leukemia patient primary cells Pat.6; assay: as above
Summary of the method: as §1

[13] = system: myeloid leukemia patient primary cells Pat.7; assay: as above
Summary of the method: as §1

[14] = system: myeloid leukemia patient primary cells Pat.8; assay: as above
Summary of the method: as §1

[15] = system: myeloid leukemia patient primary cells Pat.9; assay: as above
Summary of the method: as §1

[16] = system: myeloid leukemia patient primary cells Pat.10; assay: area under dose-response curve (viability, 1 nM-10 uM) (fraction (0-1)); higher = more sensitive
Procedure: (§2)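 AUC (0–1, higher = more sensitive) of the 5-point dose–response (1 nM–10 µM, 72 h, CellTiter-Glo) in primary AML/CML patient mononuclear cells. 0.030103 is the floor for inactive compounds.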

[17] = system: myeloid leukemia patient primary cells Pat.11; assay: as above
Procedure: as §2

[18] = system: myeloid leukemia patient primary cells Pat.12; assay: as above
Procedure: as §2

[19] = system: myeloid leukemia patient primary cells Pat.13; assay: as above
Procedure: as §2

[20] = system: myeloid leukemia patient primary cells Pat.14; assay: as above
Procedure: as §2

[21] = system: myeloid leukemia patient primary cells Pat.15; assay: as above
Procedure: as §2

[22] = system: myeloid leukemia patient primary cells Pat.1; assay: as above
Procedure: as §2

[23] = system: myeloid leukemia patient primary cells Pat.2; assay: as above
Procedure: as §2

[24] = system: myeloid leukemia patient primary cells Pat.3; assay: as above
Procedure: as §2

[25] = system: myeloid leukemia patient primary cells Pat.4; assay: as above
Procedure: as §2

[26] = system: myeloid leukemia patient primary cells Pat.5; assay: as above
Procedure: as §2

[27] = system: myeloid leukemia patient primary cells Pat.6; assay: as above
Procedure: as §2

[28] = system: myeloid leukemia patient primary cells Pat.7; assay: as above
Procedure: as §2

[29] = system: myeloid leukemia patient primary cells Pat.8; assay: as above
Procedure: as §2

[30] = system: myeloid leukemia patient primary cells Pat.9; assay: as above
Procedure: as §2

CC(C)c1onc(-c2c(Cl)cccc2Cl)c1COc1ccc(/C=C/c2cccc(C(=O)O)c2)c(Cl)c1 [GW 4064]
cell viability [%]
Conditions | 1 nM | 10 nM | 100 nM | 1000 nM | 10000 nM
[1] | 61.6 | 86.6 | 38.4 | 8.43 | 9.05
[2] | 96.4 | 95.9 | 99.3 | 90.6 | 74.3
[3] | 92.5 | 94.8 | 97.5 | 95.5 | 89.8
[4] | 99.3 | 88.8 | 78.5 | 81.7 | 52.7
[5] | 84.9 | 69.6 | 66 | 63.2 | 2.05
[6] | 92.6 | 95.2 | 95.5 | 98 | 89.7
[7] | > 100 | 91.2 | 95.4 | 99.2 | 68.8
[8] | 98.1 | 94.5 | 84.4 | 96.8 | 92.7
[9] | 83.5 | 78.7 | 86.3 | 16.1 | 0.177
[10] | 81.1 | 92 | 96.4 | 91.2 | 64
[11] | 80.1 | 49.1 | 67.6 | 2.27 | 0.265
[12] | > 100 | 94.1 | 99.2 | 92.7 | 62.8
[13] | 64.4 | 67.8 | 67.5 | 40.3 | < 0
[14] | 91.6 | 88.4 | 64 | 90.2 | 81.9
[15] | 59.1 | 40.4 | 48.8 | 3.95 | < 0

Conditions | area under dose-response curve
[16] | 0.473
[17] | < 0.0301
[18] | < 0.0301
[19] | 0.0666
[20] | 0.18
[21] | < 0.0301
[22] | < 0.0301
[23] | < 0.0301
[24] | 0.323
[25] | < 0.0301
[26] | 0.413
[27] | 0.0544
[28] | 0.278
[29] | < 0.0301
[30] | 0.539

CCn1c(=O)/c(=C2\Sc3ccccc3N2C)s/c1=C\c1cccc[n+]1CC.[Cl-] [MKT-077]
cell viability [%]
Conditions | 1 nM | 10 nM | 100 nM | 1000 nM | 10000 nM
[1] | 35.1 | 83.7 | > 100 | 54.6 | 67.1
[2] | 96.9 | 95.6 | 99.3 | > 100 | 88.3
[3] | 95.4 | 95.7 | 97 | 97.5 | 91.4
[4] | 85.3 | 83.5 | 92.6 | 88.8 | 72.1
[5] | 49.3 | 84.2 | > 100 | 100 | 61.8
[6] | 86.1 | 93.1 | 87.2 | 98.8 | 82.1
[7] | 88.7 | 75.1 | 99.5 | 96.7 | 79.3
[8] | 93.4 | 99.4 | 98.1 | 99.9 | 85.4
[9] | 46.3 | 84.2 | > 100 | > 100 | 80.4
[10] | 92.1 | 92.2 | 99.6 | 83.8 | 61.6
[11] | 2.39 | 85 | 95.2 | 69.1 | 27.4
[12] | 86.5 | > 100 | > 100 | 97.5 | 76.2
[13] | 60.4 | 97.6 | 87.8 | 78.2 | 63.4
[14] | 71.5 | 87.3 | 95.1 | 82.5 | 67.2
[15] | 7.21 | 82.2 | 86.3 | 78.1 | 48

Conditions | area under dose-response curve
[17] | < 0.0301
[18] | < 0.0301
[19] | 0.0334
[20] | < 0.0301
[21] | < 0.0301
[22] | < 0.0301
[23] | < 0.0301
[24] | < 0.0301
[26] | 0.119
[27] | 0.0306
[28] | 0.0538
[29] | 0.0466
[30] | 0.0402

O=C(CCl)N(CCCNC(=O)C(F)(F)F)c1ccc([N+](=O)[O-])cc1 [ML-175]
cell viability [%]
Conditions | 1 nM | 10 nM | 100 nM | 1000 nM | 10000 nM
[1] | 81.5 | 93.1 | 17.1 | 15.7 | 5.41
[2] | 95.5 | 97 | 86.2 | 67.7 | 1.51
[3] | 96.2 | 98.2 | 80.4 | 58.4 | 1.48
[4] | 92.9 | 88.6 | 71.6 | 62.1 | 3.76
[5] | 87.8 | 82.6 | 29.4 | 51.2 | 2.44
[6] | 95 | 80.2 | 86.1 | 75.6 | 1.52
[7] | 85.7 | 78.3 | 67.8 | 72.8 | < 0
[8] | 94.8 | 93.7 | 89.3 | 82.8 | 4.31
[9] | 96.1 | 96.2 | 23.6 | 46.1 | 0.554
[10] | 97.6 | 79.3 | 65.7 | 42.1 | 1.37
[11] | 99.9 | 51.6 | < 0 | 2.01 | < 0
[12] | 97.1 | 94.4 | 70.2 | 61.2 | 1.29
[13] | > 100 | 89.4 | 11.6 | 43.6 | 50
[14] | 87.1 | 89 | 85.1 | 65.8 | 0.0301
[15] | 64.6 | 81.5 | 7.88 | 7.21 | 0.492

Conditions | area under dose-response curve
[16] | 0.542
[17] | 0.199
[18] | 0.221
[19] | 0.19
[20] | 0.488
[21] | 0.159
[22] | 0.149
[23] | 0.147
[24] | 0.498
[25] | 0.29
[26] | 0.744
[27] | 0.204
[28] | 0.533
[29] | 0.192
[30] | 0.593
